According to PubChem BioAssay AID330 (DTP/NCI, 2004):
Where “and” joins values, the source holds several entries; their conditions need not be identical. Equal entries are not always repeated. Toxic doses and inconclusive results are not listed.

Test system: P388 leukemia ip, CD2F1 mice, survival T/C
Experiment: NCI In Vivo Anticancer Drug Screen. Data for tumor model P388 Leukemia (intraperitoneal) in CD2F1 (CDF1) mice
Details: endpoint: median survival time, higher = longer survival
How it was run: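 Mice carrying the transplanted tumor received test compound or vehicle. Survival was recorded in each group, and the value is the treated-group measurement divided by that of the vehicle-treated control group.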

With CN1C(=O)C2(OC(N)=C(O)C2=O)c2ccccc21 (stereo unspecified) the T/C (dose: 50.0 mg/kg/injection, schedule: Q01DX005 (ip), vehicle: Klucel (hydroxypropylcellulose) (HPC)) was 99 % of control, the T/C (dose: 100.0 mg/kg/injection, schedule: Q01DX005 (ip), vehicle: Klucel (hydroxypropylcellulose) (HPC)) was 96 % of control and the T/C (dose: 200.0 mg/kg/injection, schedule: Q01DX005 (ip), vehicle: Klucel (hydroxypropylcellulose) (HPC)) was 97 % of control.

For OCC1OC2C(NC(=S)N2c2ccccc2)C(O)C1O (stereo unspecified), the T/C (dose: 60.0 mg/kg/injection, schedule: Q01DX005 (ip), vehicle: saline with Tween-80) was 101 % of control, the T/C (dose: 120.0 mg/kg/injection, schedule: Q01DX005 (ip), vehicle: saline with Tween-80) was 98 % of control and the T/C (dose: 240.0 mg/kg/injection, schedule: Q01DX005 (ip), vehicle: saline with Tween-80) was 104 % of control.

O=C1C(N=Nc2ccccc2)C(O)N(c2ccc(Cl)cc2)C(=S)N1c1cccc(Cl)c1Cl (stereo unspecified) was tested, and the T/C (dose: 100.0 mg/kg/injection, schedule: Q04DX002 (ip), vehicle: Klucel (hydroxypropylcellulose) (HPC)) was 100 % of control, the T/C (dose: 200.0 mg/kg/injection, schedule: Q04DX002 (ip), vehicle: Klucel (hydroxypropylcellulose) (HPC)) was 100 % of control and the T/C (dose: 400.0 mg/kg/injection, schedule: Q04DX002 (ip), vehicle: Klucel (hydroxypropylcellulose) (HPC)) was 99 % of control.

For [CH3][Sn]1([CH3])[O]C2C(O)OC(CO)C(O)C2[O]1 (stereo unspecified), the T/C (dose: 6.25 mg/kg/injection, schedule: Q01DX005 (ip), vehicle: Klucel (hydroxypropylcellulose) (HPC)) was 108 % of control and 113 % of control, the T/C (dose: 12.5 mg/kg/injection, schedule: Q01DX005 (ip), vehicle: Klucel (hydroxypropylcellulose) (HPC)) was 110 % of control and 111 % of control (2×) and the T/C (dose: 25.0 mg/kg/injection, schedule: Q01DX005 (ip), vehicle: Klucel (hydroxypropylcellulose) (HPC)) was 109 % of control and 120 % of control and 121 % of control.

CC1(C)CCC2=C1CC[C@H]1[C@H]2CCC2=CC(=O)CC[C@@]21C was tested, and the T/C (dose: 100.0 mg/kg/injection, schedule: Q01DX009 (ip), vehicle: saline with Tween-80) was 90 % of control, the T/C (dose: 100.0 mg/kg/injection, schedule: Q04DX003 (ip), vehicle: saline with Tween-80) was 110 % of control and the T/C (dose: 200.0 mg/kg/injection, schedule: Q01DX009 (ip), vehicle: saline with Tween-80) was 100 % of control. The T/C (dose: 200.0 mg/kg/injection, schedule: Q04DX003 (ip), vehicle: saline with Tween-80) was 105 % of control and the T/C (dose: 400.0 mg/kg/injection, schedule: Q04DX003 (ip), vehicle: saline with Tween-80) was 115 % of control.

For FC(F)(F)c1ccc(NC(=S)SCc2ccc(Cl)cc2)cc1, the T/C (dose: 50.0 mg/kg/injection, schedule: Q01DX009 (ip), vehicle: suspension in saline) was 90 % of control, the T/C (dose: 100.0 mg/kg/injection, schedule: Q01DX009 (ip), vehicle: suspension in saline) was 100 % of control and the T/C (dose: 200.0 mg/kg/injection, schedule: Q01DX009 (ip), vehicle: suspension in saline) was 108 % of control.

With Nc1ccc2cc(S(=O)(=O)O)cc(O)c2c1N=Nc1ccc(F)cc1 the T/C (dose: 25.0 mg/kg/injection, schedule: Q01DX009 (ip), vehicle: saline) was 93 % of control, the T/C (dose: 50.0 mg/kg/injection, schedule: Q01DX009 (ip), vehicle: saline) was 93 % of control and the T/C (dose: 100.0 mg/kg/injection, schedule: Q01DX009 (ip), vehicle: saline) was 88 % of control and 91 % of control.

With CC(C)N1CCOC1c1ccccc1 (stereo unspecified) the T/C (dose: 50.0 mg/kg/injection, schedule: Q04DX003 (ip), vehicle: saline sonified) was 109 % of control, the T/C (dose: 100.0 mg/kg/injection, schedule: Q04DX003 (ip), vehicle: saline sonified) was 118 % of control and the T/C (dose: 200.0 mg/kg/injection, schedule: Q04DX003 (ip), vehicle: saline sonified) was 109 % of control.

In the case of Cn1c(=O)c2c(ncn2CCNC(c2ccccc2)c2cccc(Cl)c2)n(C)c1=O (stereo unspecified), the T/C (dose: 6.25 mg/kg/injection, schedule: Q01DX005 (ip), vehicle: alkali diluted with saline) was 101 % of control, the T/C (dose: 12.5 mg/kg/injection, schedule: Q01DX005 (ip), vehicle: alkali diluted with saline) was 94 % of control and the T/C (dose: 25.0 mg/kg/injection, schedule: Q01DX005 (ip), vehicle: alkali diluted with saline) was 97 % of control.

CC(C)(O)/C=C/C(=O)[C@](C)(O)[C@H]1[C@H](O)C[C@@]2(C)[C@@H]3CC=C4[C@@H](C[C@H](O)C(=O)C4(C)C)[C@]3(C)C(=O)C[C@]12C was tested, and the T/C (dose: 0.25 mg/kg/injection, schedule: Q01DX009 (ip), vehicle: saline + Tween-80 + alcohol) was 118 % of control, the T/C (dose: 0.25 mg/kg/injection, schedule: Q01DX009 (ip), vehicle: saline with Tween-80) was 105 % of control and the T/C (dose: 0.25 mg/kg/injection, schedule: Q01DX009 (ip), vehicle: saline) was 113 % of control. The T/C (dose: 0.5 mg/kg/injection, schedule: Q01DX009 (ip), vehicle: saline + Tween-80 + alcohol) was 121 % of control, the T/C (dose: 0.5 mg/kg/injection, schedule: Q01DX009 (ip), vehicle: saline with Tween-80) was 108 % of control and the T/C (dose: 0.5 mg/kg/injection, schedule: Q01DX009 (ip), vehicle: saline) was 111 % of control. For the same molecule, the T/C (dose: 0.5 mg/kg/injection, schedule: Q01DX010 (ip), vehicle: saline) was 95 % of control, the T/C (dose: 0.96 mg/kg/injection, schedule: Q01DX009 (ip), vehicle: saline + Tween-80 + alcohol) was 152 % of control and the T/C (dose: 0.96 mg/kg/injection, schedule: Q01DX009 (ip), vehicle: saline with Tween-80) was 105 % of control. For the same molecule, the T/C (dose: 1.0 mg/kg/injection, schedule: Q01DX009 (ip), vehicle: saline + Tween-80 + alcohol) was 118 % of control, the T/C (dose: 1.0 mg/kg/injection, schedule: Q01DX009 (ip), vehicle: saline with Tween-80) was 119 % of control and the T/C (dose: 1.0 mg/kg/injection, schedule: Q01DX009 (ip), vehicle: saline) was 111 % of control.
